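Tested at 5 concentrations; 48 h exposure; 96-well plates; endpoints linearly interpolated, else capped at highest concentration. TGI is the concentration that stops growth completely.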
How the values were obtained:
Assay in all cases: NCI anticancer screen, dose series, 48 h
[1] = test system: OVCAR-5 ovarian
[2] = test system: MALME-3M melanoma
[3] = test system: HT29 colon
[4] = test system: SF-268 CNS
[5] = test system: SK-MEL-5 melanoma
[6] = test system: HCT-15 colon
[7] = test system: EKVX NSCLC
[8] = test system: HCC-2998 colon
[9] = test system: COLO 205 colon
[10] = test system: NCI-H23 lung
[11] = test system: OVCAR-8 ovarian
[12] = test system: SK-OV-3 ovarian
[13] = test system: TK-10 renal
[14] = test system: SF-295 CNS
[15] = test system: U251 CNS
[16] = test system: KM20L2 colon
[17] = test system: UACC-257 melanoma
[18] = test system: M19-MEL melanoma
[19] = test system: OVCAR-4 ovarian
[20] = test system: XF 498 CNS
[21] = test system: CAKI-1 renal
[22] = test system: NCI-H522 lung
[23] = test system: CCRF-CEM leukemia
[24] = test system: SK-MEL-2 melanoma
[25] = test system: ACHN renal
[26] = test system: LXFL 529 NSCLC
[27] = test system: A549 NSCLC
[28] = test system: DLD-1 colon
[29] = test system: HL-60(TB) leukemia
[30] = test system: RPMI-8226 leukemia
[31] = test system: SN12C renal
[32] = test system: IGROV1 ovarian
[33] = test system: K-562 leukemia
[34] = test system: M14 melanoma
[35] = test system: SR leukemia
[36] = test system: SK-MEL-28 melanoma
[37] = test system: HCT-116 colon
[38] = test system: SF-539 CNS
[39] = test system: 786-0 renal
[40] = test system: KM12 colon
[41] = test system: HOP-62 NSCLC
[42] = test system: LOX IMVI melanoma
[43] = test system: SNB-19 CNS
[44] = test system: UACC-62 melanoma
[45] = test system: OVCAR-3 ovarian
[46] = test system: MOLT-4 leukemia
[47] = test system: UO-31 renal
[48] = test system: NCI-H226 lung
[49] = test system: SW-620 colon
[50] = test system: DMS 114 small cell lung
[51] = test system: HOP-92 NSCLC
[52] = test system: DMS 273 small cell lung
[53] = test system: SNB-78 CNS
[54] = test system: SNB-75 CNS
[55] = test system: A498 renal
[56] = test system: PC-3 prostate
[57] = test system: DU-145 prostate
[58] = test system: RXF 393 renal
[59] = test system: MCF7 breast
[60] = test system: T-47D breast
[61] = test system: HS 578T breast
[62] = test system: BT-549 breast
[63] = test system: MDA-MB-231 breast
[64] = test system: NCI/ADR-RES ovarian
[65] = test system: NCI-H460 lung
[66] = test system: MDA-N
[67] = test system: MDA-MB-435

Measured: TGI

CC1(c2ccccc2)CC12C(=O)NC(=O)NC2=O (stereo unspecified)
not listed: [54] | [55] | [56] | [57] | [58] | [59] | [60] | [61] | [62] | [63] | [64] | [65] | [66] | [67]
> 100 µM: all other assays above

CCOC(=O)NC(Nc1cccc(F)c1)(C(F)(F)F)C(F)(F)F
not listed: [16] | [18] | [19] | [20] | [26] | [28] | [50] | [52] | [53]
> 100 µM: all other assays above
